Data reported in patent US11440884B2, “Compounds, salts thereof and methods for treatment of diseases” (ACADIA PHARMACEUTICALS INC., priority 2017, dated 2022).

target: 5-HT2A receptor (Homo sapiens (Human), UniProt P28223); assay: Receptor Selection and Amplification (R-SAT) functional antagonist assay; details: not given;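 note: Read-out is β-galactosidase marker gene activity with ONPG substrate, measured after five days of growth in 96-well plates holding the test compound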
Sequence (P28223 whole entry): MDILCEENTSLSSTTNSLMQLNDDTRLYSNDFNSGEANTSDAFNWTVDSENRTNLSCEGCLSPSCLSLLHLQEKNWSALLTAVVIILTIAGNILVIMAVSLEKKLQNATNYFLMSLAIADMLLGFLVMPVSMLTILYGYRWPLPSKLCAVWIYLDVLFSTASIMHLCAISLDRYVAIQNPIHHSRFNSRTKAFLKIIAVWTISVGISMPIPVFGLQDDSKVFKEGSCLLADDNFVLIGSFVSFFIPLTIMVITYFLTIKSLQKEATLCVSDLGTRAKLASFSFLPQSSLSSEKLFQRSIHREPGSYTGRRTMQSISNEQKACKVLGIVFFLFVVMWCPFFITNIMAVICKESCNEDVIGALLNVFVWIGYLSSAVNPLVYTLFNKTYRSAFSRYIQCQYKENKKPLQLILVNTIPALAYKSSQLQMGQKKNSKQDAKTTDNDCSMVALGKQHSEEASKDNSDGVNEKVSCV

In order of falling Ki:
1. CC(C)Oc1ccc(COC(=O)N(Cc2ccc(F)cc2C(F)(F)F)C2CCN(C)CC2)cc1 [Compound 81]  2000 µM
2. CC(C)COc1ccc(CC(=O)N(Cc2ccc(Cl)cc2C(F)(F)F)C2CCN(C)CC2)cc1 [Compound 50, N-{[4-chloro-2-(trifluoromethyl)phenyl]methyl}-N-(1-methylpiperidin-4-yl)-2-[4-(2-methylpropoxy)phenyl]acetamide; trifluoroacetic acid]  200 µM
3. COc1ccc(CN(C(=O)OCc2ccc(OC(C)C)cc2)C2CCN(C)CC2)c(F)c1 [Compound 41, [4-(propan-2-yloxy)phenyl]methyl N-[(2-fluoro-4-methoxyphenyl)-methyl]-N-(1-methylpiperidin-4-yl)carbamate]  0.00251 µM

In order of rising “5-HT2a pKi” value:
1. CC(C)Oc1ccc(COC(=O)N(Cc2ccc(C(F)(F)F)cc2Cl)C2CCN(C)CC2)cc1.O=C(O)C(F)(F)F [Compound 78]  7.6
2. CC(C)COc1ccc(CC(=O)N(Cc2ccc(C(F)(F)F)cc2F)C2CCN(C)CC2)cc1.O=C(O)C(F)(F)F [Compound 69]  7.7
3. Cc1cc(F)ccc1CN(C(=O)OCc1ccc(OC(C)C)cc1)C1CCN(C)CC1.O=C(O)C(F)(F)F [Compound 56, [4-(propan-2-yloxy)phenyl]methyl N-[(4-fluoro-2-methylphenyl)-methyl]-N-(1-methylpiperidin-4-yl)carbamate; trifluoroacetic acid]  7.8
4. COc1ccc(CN(C(=O)OCc2ccc(OC(C)C)cc2)C2CCN(C)CC2)c(Cl)c1.O=C(O)C(F)(F)F [Compound 57, [4-(propan-2-yloxy)phenyl]methyl N-[(2-chloro-4-methoxy-phenyl)methyl]-N-(1-methylpiperidin-4-yl)carbamate; trifluoroacetic acid]  7.8
5. CN1CCC(N(Cc2ccc(F)cc2F)C(=O)OCc2ccc(C(C)(F)F)cc2)CC1.O=C(O)C(F)(F)F [Compound 73]  9.4
6. CN1CCC(N(Cc2ccc(F)cc2F)C(=O)OCc2ccc(OC(C)(C)C)cc2)CC1.O=C(O)C(F)(F)F [Compound 72]  10.0

same assay, conditions: R-SAT, transfected NIH3T3 cells; guidance: high affinity pKi≥8.4, moderate affinity pKi≥7.7

In order of falling “5-HT2a pKi” value:
1. Cc1c(F)ccc(CN(C(=O)OCc2ccc(OC(C)C)cc2)C2CCN(C)CC2)c1F [Compound 67, [4-(propan-2-yloxy)phenyl]methyl N-[(2,4-difluoro-3-methylphenyl)methyl]-N-(1-methylpiperidin-4-yl)carbamate]  10.0
2. CCN1CCC(N(Cc2ccc(F)cc2F)C(=O)OCc2ccc(OC(C)C)cc2)CC1 [Compound 44, [4-(propan-2-yloxy)phenyl]methyl N-[(2,4-difluorophenyl)methyl]-N-(1-ethylpiperidin-4-yl)carbamate]  9.4
3. CC(C)Oc1ccc(COC(=O)N(Cc2c(F)cc(Cl)cc2F)C2CCN(C)CC2)cc1 [Compound 74]  9.1
4. CCCCOc1ccc(COC(=O)N(Cc2ccc(F)cc2F)C2CCN(C)CC2)cc1 [Compound 40, (4-butoxyphenyl)methyl N-[(2,4-difluorophenyl)methyl]-N-(1-methylpiperidin-4-yl)carbamate]  8.9
5. CC(C)Oc1ccc(COC(=O)N(Cc2ccc(F)cc2F)C2CCN(C3CC3)CC2)cc1 [Compound 45, [4-(propan-2-yloxy)phenyl]methyl N-(1-cyclopropylpiperidin-4-yl)-N-[(2,4-difluorophenyl)methyl]carbamate]  8.6
6. CC(C)Oc1ccc(COC(=O)N(Cc2ccc(F)cc2F)C2CCN(CC(C)(C)C(=O)O)CC2)cc1 [Compound 43, 3-(4-{[(2,4-difluorophenyl)methyl]({[4-(propan-2-yloxy)phenyl]-methoxy}carbonyl)amino}piperidin-1-yl)-2,2-dimethylpropanoic acid]  8.5
7. CC(C)Oc1ccc(COC(=O)N(Cc2ccc(F)cc2Cl)C2CCN(C)CC2)cc1 [Compound 63, [4-(propan-2-yloxy)phenyl]methyl N-[(2-chloro-4-fluorophenyl)-methyl]-N-(1-methylpiperidin-4-yl)carbamate]  8.4
8. CC(C)Oc1ccc(COC(=O)N(Cc2c(F)ccc(F)c2F)C2CCN(C)CC2)cc1 [Compound 66, [4-(propan-2-yloxy)phenyl]methyl N-(1-methylpiperidin-4-yl)-N-[(2,3,6-trifluorophenyl)methyl]carbamate]  8.4
9. CC(C)Oc1ccc(COC(=O)N(Cc2ccc(C(F)(F)F)cc2F)C2CCN(C)CC2)cc1.O=C(O)C(F)(F)F [Compound 79]  8.4
10. COc1ccc(CN(C(=O)Cc2ccc(OCC(C)C)cc2)C2CCN(C)CC2)c(F)c1 [Compound 47, N-[(2-fluoro-4-methoxyphenyl)methyl]-N-(1-methylpiperidin-4-yl)-2-[4-(2-methylpropoxy)phenyl]acetamide]  8.1
11. CC(C)COc1ccc(COC(=O)N(Cc2ccc(F)cc2Cl)C2CCN(C)CC2)cc1 [Compound 58, [4-(2-methylpropoxy)phenyl]methyl N-[(2-chloro-4-fluorophenyl)methyl]-N-(1-methylpiperidin-4-yl)carbamate]  8.1
12. COC(=O)C(C)(C)CN1CCC(N(Cc2ccc(F)cc2F)C(=O)OCc2ccc(OC(C)C)cc2)CC1 [Compound 42, methyl 3-(4-{[(2,4-difluorophenyl)methyl]({[4-(propan-2-yloxy)phenyl]methoxy}carbonyl)amino}piperidin-1-yl)-2,2-dimethylpropanoate]  8.0
13. CC(C)COc1ccc(COC(=O)N(Cc2ccc(Cl)cc2Cl)C2CCN(C)CC2)cc1 [Compound 64, [4-(2-methylpropoxy)phenyl]methyl N-[(2,4=dichlorophenyl)methyl]-N-(1-methylpiperidin-4-yl)carbamate]  8.0
14. CC(C)Oc1ccc(COC(=O)N(Cc2cc(F)c(F)cc2F)C2CCN(C)CC2)cc1 [Compound 80]  7.8
15. CC(C)COc1ccc(COC(=O)N(Cc2ccc(F)cc2O)C2CCN(C)CC2)cc1 [Compound 82, [4-(2-methylpropoxy)phenyl]methyl N-[(4-fluoro-2-hydroxyphenyl)methyl]-N-(1-methylpiperidin-4-yl)carbamate]  7.8
16. Cc1ccc(F)c(CN(C(=O)OCc2ccc(OC(C)C)cc2)C2CCN(C)CC2)c1F [Compound 65, [4-(propan-2-yloxy)phenyl]methyl N-[(2,6-difluoro-3-methylphenyl)methyl]-N-(1-methylpiperidin-4-yl)carbamate]  7.7
17. CC(C)Oc1ccc(COC(=O)N(Cc2ccc(F)cc2F)C2CCN(C3COC3)CC2)cc1 [Compound 46, [4-(propan-2-yloxy)phenyl]methyl N-[(2,4-difluorophenyl)methyl]-N-[1-(oxetan-3-yl)piperidin-4-yl]carbamate]  7.6
18. CC(C)Oc1ccc(/C=C/C(=O)N(Cc2ccc(F)cc2F)C2CCN(C)CC2)cc1 [Compound 48, (2E)-N-[(2,4-difluorophenyl)methyl]-N-(1-methylpiperidin-4-yl)-3-[4-(propan-2-yloxy)phenyl]prop-2-enamide]  7.4
19. Cc1ccc(CN(C(=O)OCc2ccc(OC(C)C)cc2)C2CCN(C)CC2)c(F)c1 [Compound 68, [4-(propan-2-yloxy)phenyl]methyl N-[(2-fluoro-4-methylphenyl)-methyl]-N-(1-methylpiperidin-4-yl)carbamate]  7.3
20. COc1ccc(CN(C(=O)Cc2ccc(OCC(C)C)cc2)C2CCN(C)CC2)c(Cl)c1.O=C(O)C(F)(F)F [Compound 53, N-[(2-chloro-4-methoxyphenyl)methyl]-N-(1-methylpiperidin-4-yl)-2-[4-(2-methylpropoxy)phenyl]acetamide; trifluoroacetic acid]  6.9
21. COc1cc(CN(C(=O)OCc2ccc(OC(C)C)cc2)C2CCN(C)CC2)ccc1Cl.O=C(O)C(F)(F)F [Compound 75]  6.8
22. CC(C)COc1ccc(CC(=O)N(Cc2ccc(F)cc2OC(F)(F)F)C2CCN(C)CC2)cc1.O=C(O)C(F)(F)F [Compound 51, N-{[4-fluoro-2-(trifluoromethoxy)phenyl]methyl}-N-(1-methyl-piperidin-4-yl)-2-[4-(2-methylpropoxy)phenyl]acetamide; trifluoroacetic acid]  6.7
23. Cc1cc(F)ccc1CN(C(=O)Cc1ccc(OCC(C)C)cc1)C1CCN(C)CC1.O=C(O)C(F)(F)F [Compound 52, N-[(4-fluoro-2-methylphenyl)methyl]-N-(1-methylpiperidin-4-yl)-2-[4-(2-methylpropoxy)phenyl]acetamide; trifluoroacetic acid]  6.7
24. CC(C)COc1ccc(CC(=O)N(Cc2ccc(F)cc2Cl)C2CCN(C)CC2)cc1.O=C(O)C(F)(F)F [Compound 61, N-[(2-chloro-4-fluorophenyl)methyl]-N-(1-methylpiperidin-4-yl)-2-[4-(2-methylpropoxy)phenyl]acetamide; trifluoroacetic acid]  6.7
25. CC(C)COc1ccc(CC(=O)N(Cc2ccc(Cl)cc2Cl)C2CCN(C)CC2)cc1.O=C(O)C(F)(F)F [Compound 59, N-[(2,4-dichlorophenyl)methyl]-N-(1-methylpiperidin-4-yl)-2-[4-(2-methylpropoxy)phenyl]acetamide; trifluoroacetic acid]  6.6
26. CC(C)Oc1ccc(CC(=O)N(Cc2ccc(Cl)cc2Cl)C2CCN(C)CC2)cc1.O=C(O)C(F)(F)F [Compound 60, N-[(2,4-dichlorophenyl)methyl]-N-(1-methylpiperidin-4-yl)-2-[4-(propan-2-yloxy)phenyl]acetamide; trifluoroacetic acid]  6.5
27. CC(C)Oc1ccc(CC(=O)N(Cc2ccc(F)cc2Cl)C2CCN(C)CC2)cc1.O=C(O)C(F)(F)F [Compound 62, N-[(2-chloro-4-fluorophenyl)methyl]-N-(1-methylpiperidin-4-yl)-2-[4-(propan-2-yloxy)phenyl]acetamide; trifluoroacetic acid]  6.5
